Here are results for 35 compounds from US11505548B2, “Heterocyclic compounds and their use for treatment of helminthic infections and diseases” (Celgene Corporation, priority 2019, dated 2022).

The IC50 is the concentration that inhibits the measured activity by half.

The experiment relates to microfilariae of Dirofilaria immitis. Nature of the experiment: Dirofilaria immitis, Microfilaria (DiMF) Assay. The experiment is classed as cell-based. Conditions: read-out: D. immitis activity level (IC50 or MED). As to the method: Heartworm Screen Dirofilaria immitis (D. immitis)
Dirofilaria immitis, Microfilaria (DiMF) Assay.
Compounds were dissolved and serially diluted in DMSO. Aliquots were spotted to the empty wells of assay plates. Media and microfilariae of Dirofilaria immitis were added to each well to dilute the test compounds to the desired concentrations. Assay plates were incubated for approximately 72 hours, and the larvae in each well were observed microscopically for drug effect. Microfilariae in each well were assessed subjectively for survival or paralysis, and results were reported as Minimum Effective Dose (MED).
Active and selective (DiL4 vs. DiMF potency) example compounds were subsequently evaluated in heartworm positive dog studies to correlate the in vitro selectivity profile with in vivo effects on circulating microfilariae.

On to `c1ccc(-c2ccnc(Nc3nc(-c4ccccn4)no3)c2)cc1` [Compound 246, N-(4-phenyl-pyridin-2-yl)-3-(pyridin-2-yl)-1,2,4-oxadiazol-5-amine], for which the IC50 is 500 to 5000 nM.

As for `Cc1ccnc(Nc2nnc(-c3ncccc3C)[nH]2)c1` [Compound 242, 4-methyl-N-(5-(3-methyl-pyridin-2-yl)-4H-1,2,4-triazol-3-yl)pyridin-2-amine], the IC50 was 200 to 500 nM.

In the case of `CN(C)c1cccnc1Nc1nc(-c2ccc(OC(F)F)cn2)ns1` [Compound 120, N2-(3-(5-(difluoromethoxy)pyridin-2-yl)-1,2,4-thiadiazol-5-yl)-N3,N3-dimethyl-pyridine-2,3-diamine], the concentration for half-maximal inhibition (IC50) lay within 500 to 5000 nM.

With `CN(C)c1cccnc1Nc1nc(-c2ccc(OC3CC3)cn2)ns1` [Compound 78, N2-(3-(5-cyclopropoxy-pyridin-2-yl)-1,2,4-thiadiazol-5-yl)-N3,N3-dimethyl-pyridine-2,3-diamine], the IC50 fell in the range of 500 to 5000 nM. Regarding `CC(=O)N(C)c1cccnc1Nc1nc(-c2ccc(OC3CCN(C(C)C)CC3(F)F)cn2)ns1` (centres unmarked) [Compound 203, N-(2-(3-(5-(3,3-difluoro-1-isopropyl-piperidin-4-yloxy)pyridin-2-yl)-1,2,4-thiadiazol-5-ylamino)pyridin-3-yl)-N-methylacetamide], the IC50 lay within 500 to 5000 nM.

For `CC(C)Oc1ccc(-c2nsc(Nc3ncccc3N(C)C(=O)C3CCC3)n2)nc1` [Compound 171, N-(2-(3-(5-isopropoxy-pyridin-2-yl)-1,2,4-thiadiazol-5-ylamino)pyridin-3-yl)-N-methylcyclo-butane-carboxamide], the IC50 lay in the range of 500 to 5000 nM. On to `CC(=O)N(c1cccnc1Nc1nc(-c2ccc(OC(C)C)cn2)ns1)C(C)C` [Compound 205, N-(2-(3-(5-isopropoxy-pyridin-2-yl)-1,2,4-thiadiazol-5-ylamino)pyridin-3-yl)-N-isopropy-lacetamide], for which the IC50 was in the range of 500 to 5000 nM. Then `CC(C)c1cnc(Nc2nc(-c3cc(OC4CC4)ccn3)ns2)cc1C(F)(F)F` [Compound 96, 3-(4-cycloprop-oxypyridin-2-yl)-N-(5-isopropyl-4-(trifluoromethyl)pyridin-2-yl)-1,2,4-thiadiazol-5-amine], with under 200 nM; and `Cc1ccnc(-c2nsc(Nc3ncccc3F)n2)c1` [Compound 12, N-(3-fluoropyridin-2-yl)-3-(4-methylpyridin-2-yl)-1,2,4-thiadiazol-5-amine], with 200 to 500 nM. Then `COc1cnc(Nc2nc(-c3cc(C(=O)N(C)C)c(OC(C)C)cn3)ns2)c(C(F)(F)F)c1` [Compound 264, 5-isopropoxy-2-(5-(5-methoxy-3-(trifluoro-methyl)pyridin-2-ylamino)-1,2,4-thiadiazol-3-yl)-N,N-dimethyliso-nicotinamide], with 200 to 500 nM; and `c1ccc(-c2ccnc(Nc3nnc(-c4ccccn4)[nH]3)c2)cc1` [Compound 241, 4-phenyl-N-(5-(pyridin-2-yl)-4H-1,2,4-triazol-3-yl) pyridin-2-amine], with 200 to 500 nM; and `CC(=O)N(C)c1cccnc1Nc1nc(-c2cc3c(cn2)N(C(C)C)CC3)ns1` [Compound 206, N-(2-(3-(1-isopropyl-2,3-dihydro-1H-pyrrolo[2,3-c]pyridin-5-yl)-1,2,4-thiadiazol-5-ylamino)pyridin-3-yl)-N-methylacetamide], with under 200 nM. Consider `Cc1ccnc(-c2noc(Nc3ncccc3F)n2)c1` [Compound 14, N-(3-fluoro-pyridin-2-yl)-3-(4-methylpyridin-2-yl)-1,2,4-oxadiazol-5-amine], for which the IC50 was in the range of 500 to 5000 nM. Then `CC(C)c1cccnc1Nc1nc(-c2ccc(OC3CC3)cn2)ns1` [Compound 74, 3-(5-cyclopropoxy-pyridin-2-yl)-N-(3-isopropylpyridin-2-yl)-1,2,4-thiadiazol-5-amine], with under 200 nM; and `CC(C)Oc1ccc(-c2nsc(Nc3ncccc3C(=O)N(C)C)n2)nc1` [Compound 188, 2-(3-(5-isoprop-oxypyridin-2-yl)-1,2,4-thiadiazol-5-ylamino)-N,N-dimethyl nicotinamide], with 500 to 5000 nM; and `COc1ccc(-c2nsc(Nc3ccc(OC(C)C)cn3)n2)nc1` [Compound 215, N-(5-isoprop-oxypyridin-2-yl)-3-(5-methoxy-pyridin-2-yl)-1,2,4-thiadiazol-5-amine], with 500 to 5000 nM. With `CC(C)c1cccnc1Nc1nc(-c2ccc(OC(F)F)cn2)ns1` [Compound 127, 3-(5-(difluoro-methoxy)pyridin-2-yl)-N-(3-isopropyl-pyridin-2-yl)-1,2,4-thiadiazol-5-amine] the figure was 500 to 5000 nM; with `Cc1cccnc1Nc1nc(-c2ncc(OC3CC3)cc2C(F)(F)F)ns1` [Compound 93, 3-(5-cyclo-propoxy-3-(trifluoromethyl)pyridin-2-yl)-N-(3-methyl-pyridin-2-yl)-1,2,4-thiadiazol-5-amine], 500 to 5000 nM; with `CC(=O)N(C)c1cccnc1Nc1nc(-c2cc(C(F)F)c(OC(C)C)cn2)ns1` [Compound 261, N-(2-(3-(4-(difluoromethyl)-5-isopropoxy-pyridin-2-yl)-1,2,4-thiadiazol-5-ylamino)pyridin-3-yl)-N-methylacetamide], 200 to 500 nM. For the compound `CC(C)Oc1ccc(-c2nsc(Nc3ncccc3C(=O)N3CCCC3)n2)nc1` [Compound 190, (2-(3-(5-isoprop-oxypyridin-2-yl)-1,2,4-thiadiazol-5-ylamino)pyridin-3-yl) (pyrrolidin-1-yl) methanone], the IC50 was in the range of 500 to 5000 nM.

As for `CN(C)c1cccnc1Nc1nc(-c2ccc(OCC3CC3)cn2)ns1` [Compound 118, N2-(3-(5-(cyclopropyl-methoxy)pyridin-2-yl)-1,2,4-thiadiazol-5-yl)-N3,N3-dimethyl-pyridine-2,3-diamine], the IC50 lay within 500 to 5000 nM. As to `COc1cccnc1-c1nsc(Nc2cc(C(F)(F)F)c(C(C)C)cn2)n1` [Compound 210, N-(5-isopropyl-4-(trifluoromethyl)pyridin-2-yl)-3-(3-methoxy-pyridin-2-yl)-1,2,4-thiadiazol-5-amine], the IC50 was in the range of 200 to 500 nM. Then `CC(C)Oc1ccc(-c2nsc(Nc3ncccc3N(C)C(=O)C3CCCC3)n2)nc1` [Compound 172, N-(2-(3-(5-isopropoxy-pyridin-2-yl)-1,2,4-thiadiazol-5-ylamino)pyridin-3-yl)-N-methylcyclo-pentane-carboxamide], with 200 to 500 nM; and `COc1cccnc1Nc1nc(-c2cc(C(F)(F)F)c(OC3CC3)cn2)ns1` [Compound 134, 3-(5-cyclo-propoxy-4-(trifluoromethyl)pyridin-2-yl)-N-(3-methoxy-pyridin-2-yl)-1,2,4-thiadiazol-5-amine], with 500 to 5000 nM; and `CC(=O)N(C)c1cc(C(F)(F)F)cnc1Nc1nc(-c2cc3c(cn2)N(C)CC3)ns1` [Compound 249, N-methyl-N-(2-(3-(1-methyl-2,3-dihydro-1H-pyrrolo[2,3-c]pyridin-5-yl)-1,2,4-thiadiazol-5-ylamino)-5-(trifluoromethyl)pyridin-3-yl)acetamide], with under 200 nM. For `COc1cccnc1Nc1nc(-c2ccc(OC3CC3)cn2)ns1` [Compound 80, 3-(5-cycloprop-oxypyridin-2-yl)-N-(3-methoxypyridin-2-yl)-1,2,4-thiadiazol-5-amine], the IC50 was 500 to 5000 nM.

Take `Cc1cccnc1Nc1nc(-c2cc(C(F)(F)F)c(OCC3CC3)cn2)ns1` [Compound 110, 3-(5-(cyclo-propylmethoxy)-4-(trifluoromethyl)pyridin-2-yl)-N-(3-methyl-pyridin-2-yl)-1,2,4-thiadiazol-5-amine]: the IC50 is 200 to 500 nM. For `CC(C)c1ccnc(-c2nsc(Nc3cc(C(F)(F)F)ccn3)n2)c1` [Compound 86, 3-(4-isopropyl-pyridin-2-yl)-N-(4-(trifluoromethyl)pyridin-2-yl)-1,2,4-thiadiazol-5-amine], the IC50 was under 200 nM. With `Cc1cccnc1Nc1nc(-c2ccc(OC3CCN(C(=O)C(C)C)CC3)cn2)ns1` [Compound 265, 2-methyl-1-(4-(6-(5-(3-methylpyridin-2-ylamino)-1,2,4-thiadiazol-3-yl)pyridin-3-yloxy)piperidin-1-yl)propan-1-one] the figure was 500 to 5000 nM. For `CC(C)Oc1cnc(-c2nsc(Nc3ncccc3C(F)(F)F)n2)cc1C(=O)N(C)C` [Compound 218, 5-isopropoxy-N,N-dimethyl-2-(5-(3-(trifluoromethyl)pyridin-2-ylamino)-1,2,4-thiadiazol-3-yl)isonico-tinamide], the IC50 was in the range of 500 to 5000 nM. On to `Cc1cccnc1Nc1nc(-c2cc(OC(C)C)c(C(F)(F)F)cn2)ns1` [Compound 152, 3-(4-isoprop-oxy-5-(trifluoromethyl)pyridin-2-yl)-N-(3-methylpyridin-2-yl)-1,2,4-thia-diazol-5-amine], for which the IC50 was in the range of 200 to 500 nM. Take `Cc1cccnc1Nc1nc(-c2cc(C#N)ccn2)ns1` [Compound 40, 2-(5-(3-methyl-pyridin-2-ylamino)-1,2,4-thiadiazol-3-yl)isonicotino-nitrile]: the IC50 lay within 500 to 5000 nM. For `COc1ccc(-c2nsc(Nc3ccc(C4CCCC4)cn3)n2)nc1` [Compound 68, N-(5-cyclopentyl-pyridin-2-yl)-3-(5-methoxypyridin-2-yl)-1,2,4-thiadiazol-5-amine], the IC50 lay within 500 to 5000 nM.

With `CC(C)Oc1cnc(-c2nsc(Nc3ncccc3N3CCCC3=O)n2)cc1C(F)(F)F` [Compound 179, 1-(2-(3-(5-isopropoxy-4-(trifluoromethyl)pyridin-2-yl)-1,2,4-thiadiazol-5-ylamino)pyridin-3-yl)pyrrolidin-2-one], the IC50 fell in the range of 500 to 5000 nM. With `Cc1cccnc1Nc1nc(-c2ccc(OC(F)(F)F)cn2)ns1` [Compound 52, N-(3-methyl-pyridin-2-yl)-3-(5-(trifluoro-methoxy)pyridin-2-yl)-1,2,4-thiadiazol-5-amine] the figure was 500 to 5000 nM.
